Experimental findings from patent US11919901B2 (Syndax Pharmaceuticals, Inc., priority 2021, dated 2024) are described below.

Data set [1] deals with hERG (Homo sapiens (Human), UniProt Q12809). Description: Patch clamp assay (hERG tail currents, whole-cell). The format is cell-based. The settings on record: hERG transfected HEK 293 cells; for hERG % Remaining 10 μM: 10 μM compound; for hERG % Remaining 30 μM: 30 μM compound.
Data set [2] deals with Menin-MLL (Homo sapiens (Human), UniProt O00255). Description: Determination of binding constants (Ki) to Menin-MLL (HTRF). The conditions noted are these: HTRF, 0.25 nM H-FL-Menin, 3.2 nM FITC-MLL-4-43, 24 hr incubation; for Ki: read-out: Menin-MLL Ki HTRF Assay: Ki. (In general: In TR-FRET formats the signal depends on donor and acceptor labels being close together.)

Where only a bound is given, the exact number is not on record here.

Chain of hERG (Q12809 whole entry): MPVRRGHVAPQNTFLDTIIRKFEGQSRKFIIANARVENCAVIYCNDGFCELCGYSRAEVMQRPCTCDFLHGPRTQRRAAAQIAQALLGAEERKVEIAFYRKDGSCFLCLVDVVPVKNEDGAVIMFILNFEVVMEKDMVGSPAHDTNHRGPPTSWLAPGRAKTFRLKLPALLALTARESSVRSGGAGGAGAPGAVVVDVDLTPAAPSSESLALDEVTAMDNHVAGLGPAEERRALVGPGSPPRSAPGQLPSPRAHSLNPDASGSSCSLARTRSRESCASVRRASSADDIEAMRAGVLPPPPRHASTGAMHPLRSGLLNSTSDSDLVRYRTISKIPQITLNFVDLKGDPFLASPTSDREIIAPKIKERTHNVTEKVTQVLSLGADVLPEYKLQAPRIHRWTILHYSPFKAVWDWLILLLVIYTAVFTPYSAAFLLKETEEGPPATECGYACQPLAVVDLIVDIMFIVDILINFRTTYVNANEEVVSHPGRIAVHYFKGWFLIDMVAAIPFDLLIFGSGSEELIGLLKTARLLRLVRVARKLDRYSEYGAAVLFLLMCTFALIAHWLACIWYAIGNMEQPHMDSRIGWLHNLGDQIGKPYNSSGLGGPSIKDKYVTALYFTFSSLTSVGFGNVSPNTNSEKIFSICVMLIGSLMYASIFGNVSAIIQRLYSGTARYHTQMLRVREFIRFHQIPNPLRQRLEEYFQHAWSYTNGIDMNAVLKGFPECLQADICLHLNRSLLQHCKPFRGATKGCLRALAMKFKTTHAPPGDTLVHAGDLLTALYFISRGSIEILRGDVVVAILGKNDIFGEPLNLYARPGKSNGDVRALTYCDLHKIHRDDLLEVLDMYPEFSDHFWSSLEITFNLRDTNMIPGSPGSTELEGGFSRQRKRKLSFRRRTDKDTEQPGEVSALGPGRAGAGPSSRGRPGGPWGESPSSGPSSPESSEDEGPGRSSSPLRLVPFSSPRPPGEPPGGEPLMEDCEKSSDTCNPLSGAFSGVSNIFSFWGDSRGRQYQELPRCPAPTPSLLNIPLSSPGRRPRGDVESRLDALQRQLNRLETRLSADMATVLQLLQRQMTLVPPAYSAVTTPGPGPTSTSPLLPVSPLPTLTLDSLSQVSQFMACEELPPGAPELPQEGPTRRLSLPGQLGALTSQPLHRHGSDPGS
Chain of Menin-MLL (O00255 whole entry): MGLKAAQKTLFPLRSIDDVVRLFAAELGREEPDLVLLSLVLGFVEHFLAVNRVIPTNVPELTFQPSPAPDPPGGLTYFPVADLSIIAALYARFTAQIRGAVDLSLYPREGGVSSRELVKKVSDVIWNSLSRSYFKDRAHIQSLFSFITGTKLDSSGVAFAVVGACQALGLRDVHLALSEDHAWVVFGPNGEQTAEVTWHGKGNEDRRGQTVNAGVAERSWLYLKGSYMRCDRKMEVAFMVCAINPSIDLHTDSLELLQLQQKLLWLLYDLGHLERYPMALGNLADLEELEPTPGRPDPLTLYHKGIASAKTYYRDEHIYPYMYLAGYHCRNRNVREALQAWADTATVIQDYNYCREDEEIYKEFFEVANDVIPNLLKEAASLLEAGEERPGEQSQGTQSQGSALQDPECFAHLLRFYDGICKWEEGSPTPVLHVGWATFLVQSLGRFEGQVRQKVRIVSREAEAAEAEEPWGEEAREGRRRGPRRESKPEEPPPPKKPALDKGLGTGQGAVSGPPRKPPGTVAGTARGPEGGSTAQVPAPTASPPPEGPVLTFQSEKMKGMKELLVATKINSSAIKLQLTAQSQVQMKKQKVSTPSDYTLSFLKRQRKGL

Broadly, the IC50 is the concentration needed to halve the response being measured. Low readings indicate inhibition by little substance, high ones a need for much substance. A word on the Ki: it is a measure of affinity in units of concentration, obtained from inhibition or displacement. Regarding `CC(C)N(CC(F)F)C(=O)c1cc(F)ccc1Oc1cncnc1N1CC2(CCN(C[C@@H]3CC[C@@H](NS(=O)(=O)c4cnn(C)c4)CO3)CC2)C1` [Compound 100, N-(2,2-Difluoroethyl)-5-fluoro-N-isopropyl-2-((4-(7-(((2S,5R)-5-((1-methyl-1H-pyrazole)-4-sulfonamido)tetrahydro-2H-pyran-2-yl)methyl)-2,7-diazaspiro[3.5]nonan-2-yl)pyrimidin-5-yl)oxy)benzamide], in data set [1], the “hERG % Remaining 10 μM” value was “+++ (“+++” means ≥66%)”, the “hERG % Remaining 30 μM” value was “+++ (“+++” means ≥66%)” and the IC50 is not below 50000 nM. Moreover, the Ki in data set [2] was less than 1 nM.

Consider `CC(C)N(CC(F)F)C(=O)c1cc(F)ccc1Oc1cncnc1N1CC2(CCN(C[C@@H]3CC[C@@H](NS(=O)(=O)N(C)C(C)C)CO3)CC2)C1` [Compound 101, N-(2,2-Difluoroethyl)-5-fluoro-N-isopropyl-2-((4-(7-(((2S,5R)-5-((N-isopropyl-N-methylsulfamoyl)amino)tetrahydro-2H-pyran-2-yl)methyl)-2,7-diazaspiro[3.5]nonan-2-yl)pyrimidin-5-yl)oxy)benzamide], for which the “hERG % Remaining 30 μM” value in data set [1] was “+ (“+” means <33%)”. In data set [2], the Ki was less than 1 nM.

For the compound `CNS(=O)(=O)N[C@@H]1CC[C@@H](CN2CCC3(CC2)CN(c2ncncc2Oc2ccc(F)cc2C(=O)N(CC(F)F)C(C)C)C3)OC1` [Compound 102, N-(2,2-Difluoroethyl)-5-fluoro-N-isopropyl-2-((4-(7-(((2S,5R)-5-((N-methylsulfamoyl)amino)tetrahydro-2H-pyran-2-yl)methyl)-2,7-diazaspiro[3.5]nonan-2-yl)pyrimidin-5-yl)oxy)benzamide], in data set [1], the “hERG % Remaining 30 μM” value is on record as “+++ (“+++” means ≥66%)” and the IC50 is not below 50000 nM. Besides, the Ki in data set [2] is less than 1 nM.

Turning to `CC(C)N(CC(F)F)C(=O)c1cc(F)ccc1Oc1cncnc1N1CC2(CCN(C[C@@H]3CC[C@@H](NS(=O)(=O)c4ccn(C)n4)CO3)CC2)C1` [Compound 103, N-(2,2-Difluoroethyl)-5-fluoro-N-isopropyl-2-((4-(7-(((2S,5R)-5-((1-methyl-1H-pyrazole)-3-sulfonamido)tetrahydro-2H-pyran-2-yl)methyl)-2,7-diazaspiro[3.5]nonan-2-yl)pyrimidin-5-yl)oxy)benzamide], in data set [1], the “hERG % Remaining 30 μM” value is listed as “+++ (“+++” means ≥66%)”. For the same compound, in data set [2], the Ki was less than 1 nM.

Consider `Cc1c(S(=O)(=O)N[C@@H]2CC[C@@H](CN3CCC4(CC3)CN(c3ncncc3Oc3ccc(F)cc3C(=O)N(CC(F)F)C(C)C)C4)OC2)cnn1C` [Compound 104, N-(2,2-Difluoroethyl)-2-((4-(7-(((2S,5R)-5-((1,5-dimethyl-1H-pyrazole)-4-sulfonamido)tetrahydro-2H-pyran-2-yl)methyl)-2,7-diazaspiro[3.5]nonan-2-yl)pyrimidin-5-yl)oxy)-5-fluoro-N-isopropylbenzamide], for which the “hERG % Remaining 30 μM” value in data set [1] is reported as “+++ (“+++” means ≥66%)”. Besides, the Ki in data set [2] was less than 1 nM.

On to `Cc1nn(C)cc1S(=O)(=O)N[C@@H]1CC[C@@H](CN2CCC3(CC2)CN(c2ncncc2Oc2ccc(F)cc2C(=O)N(CC(F)F)C(C)C)C3)OC1` [Compound 105, N-(2,2-Difluoroethyl)-2-((4-(7-(((2S,5R)-5-((1,3-dimethyl-1H-pyrazole)-4-sulfonamido)tetrahydro-2H-pyran-2-yl)methyl)-2,7-diazaspiro[3.5]nonan-2-yl)pyrimidin-5-yl)oxy)-5-fluoro-N-isopropylbenzamide], for which the “hERG % Remaining 30 μM” value in data set [1] is reported as “+++ (“+++” means ≥66%)”. Also, in data set [2], the Ki was less than 1 nM.

For orientation: EC50 means the concentration that produces a half-maximal response. A higher EC50 goes with lower potency in that assay. As to `CC(C)N(CC(F)(F)F)C(=O)c1cc(F)ccc1Oc1cncnc1N1CC2(CCN(C[C@@H]3CC[C@@H](NS(=O)(=O)N(C)C)CO3)CC2)C1` [Compound 107, 2-((4-(7-(((2S,5R)-5-((N,N-Dimethylsulfamoyl)amino)tetrahydro-2H-pyran-2-yl)methyl)-2,7-diazaspiro[3.5]nonan-2-yl)pyrimidin-5-yl)oxy)-5-fluoro-N-isopropyl-N-(2,2,2-trifluoroethyl)benzamide], in data set [1], the “hERG % Remaining 10 μM” value is on record as “+++ (“+++” means ≥66%)”; the “hERG % Remaining 30 μM” value is “++ (“++” means ≥33% and <66%)”. Moreover, in data set [2], the EC50 is less than 50 nM and the Ki was less than 1 nM.

Take `CC(C)N(C(=O)c1cc(F)ccc1Oc1cncnc1N1CC2(CCN(C[C@@H]3CC[C@@H](NS(=O)(=O)C4CC4)CO3)CC2)C1)C1CC(F)(F)C1` [Compound 111, 2-((4-(7-(((2S,5R)-5-(Cyclopropanesulfonamido)tetrahydro-2H-pyran-2-yl)methyl)-2,7-diazaspiro[3.5]nonan-2-yl)pyrimidin-5-yl)oxy)-N-(3,3-difluorocyclobutyl)-5-fluoro-N-isopropylbenzamide]: in data set [1], the “hERG % Remaining 10 μM” value was “++ (“++” means ≥33% and <66%)”; the “hERG % Remaining 30 μM” value is on record as “+ (“+” means <33%)”. In data set [2], the EC50 is less than 50 nM and the Ki was less than 1 nM.

With `CC(C)N(C(=O)c1cc(F)ccc1Oc1cncnc1N1CC2(CCN(C[C@@H]3CC[C@@H](NS(=O)(=O)N(C)C)CO3)CC2)C1)C1CC(F)(F)C1` [Compound 113, N-(3,3-Difluorocyclobutyl)-2-((4-(7-(((2S,5R)-5-((N,N-dimethylsulfamoyl)amino)tetrahydro-2H-pyran-2-yl)methyl)-2,7-diazaspiro[3.5]nonan-2-yl)pyrimidin-5-yl)oxy)-5-fluoro-N-isopropylbenzamide], in data set [1], the “hERG % Remaining 10 μM” value was “+++ (“+++” means ≥66%)”; the “hERG % Remaining 30 μM” value was “++ (“++” means ≥33% and <66%)”. Besides, in data set [2], the concentration giving a half-maximal response (EC50) was less than 50 nM and the inhibition constant (Ki) is less than 1 nM.

Regarding `CCN(CC)S(=O)(=O)N[C@@H]1CC[C@@H](CN2CCC3(CC2)CN(c2ncncc2Oc2ccc(F)cc2C(=O)N(C(C)C)C2CC(F)(F)C2)C3)OC1` [Compound 114, 2-((4-(7-(((2S,5R)-5-((N,N-Diethylsulfamoyl)amino)tetrahydro-2H-pyran-2-yl)methyl)-2,7-diazaspiro[3.5]nonan-2-yl)pyrimidin-5-yl)oxy)-N-(3,3-difluorocyclobutyl)-5-fluoro-N-isopropylbenzamide], in data set [1], the “hERG % Remaining 10 μM” value was “+ (“+” means <33%)” and the “hERG % Remaining 30 μM” value is “+ (“+” means <33%)”. For the same compound, in data set [2], the EC50 is less than 50 nM and the Ki is less than 1 nM.

As to `CC(C)N(C(=O)c1cc(F)ccc1Oc1cncnc1N1CC2(CCN(C[C@@H]3CC[C@@H](NS(=O)(=O)N4CCC4)CO3)CC2)C1)C1CC(F)(F)C1` [Compound 118, 2-((4-(7-(((2S,5R)-5-(Azetidine-1-sulfonamido)tetrahydro-2H-pyran-2-yl)methyl)-2,7-diazaspiro[3.5]nonan-2-yl)pyrimidin-5-yl)oxy)-N-(3,3-difluorocyclobutyl)-5-fluoro-N-isopropylbenzamide], in data set [1], the “hERG % Remaining 10 μM” value was “++ (“++” means ≥33% and <66%)”; the “hERG % Remaining 30 μM” value is “+ (“+” means <33%)”. Further, in data set [2], the Ki was less than 1 nM.

As to `CC(C)N(C(=O)c1cc(F)ccc1Oc1cncnc1N1CC2(CCN(C[C@@H]3CC[C@@H](NS(=O)(=O)N(C)C(C)C)CO3)CC2)C1)C1CC(F)(F)C1` [Compound 119, N-(3,3-Difluorocyclobutyl)-5-fluoro-N-isopropyl-2-((4-(7-(((2S,5R)-5-((N-isopropyl-N-methylsulfamoyl)amino)tetrahydro-2H-pyran-2-yl)methyl)-2,7-diazaspiro[3.5]nonan-2-yl)pyrimidin-5-yl)oxy)benzamide], the “hERG % Remaining 30 μM” value in data set [1] is recorded as “+ (“+” means <33%)”. Besides, the Ki in data set [2] is less than 1 nM.

`C[C@@H]1COC[C@@H](C)N1C(=O)c1cc(F)ccc1Oc1cncnc1N1CC2(CCN(C[C@@H]3CC[C@@H](NS(=O)(=O)c4ccccc4)CO3)CC2)C1` [Compound 120, N-((3R,6S)-6-((2-(5-(2-((3R,5R)-3,5-Dimethylmorpholine-4-carbonyl)-4-fluorophenoxy)pyrimidin-4-yl)-2,7-diazaspiro[3.5]nonan-7-yl)methyl)tetrahydro-2H-pyran-3-yl)benzenesulfonamide]: in data set [1], the “hERG % Remaining 10 μM” value is on record as “+++ (“+++” means ≥66%)”; the “hERG % Remaining 30 μM” value is “++ (“++” means ≥33% and <66%)”. Besides, in data set [2], the EC50 was less than 50 nM and the Ki was less than 1 nM.

For the compound `C[C@@H]1COC[C@@H](C)N1C(=O)c1cc(F)ccc1Oc1cncnc1N1CC2(CCN(C[C@@H]3CC[C@@H](NS(=O)(=O)N4CCC4)CO3)CC2)C1` [Compound 121, N-((3R,6S)-6-((2-(5-(2-((3R,5R)-3,5-Dimethylmorpholine-4-carbonyl)-4-fluorophenoxy)pyrimidin-4-yl)-2,7-diazaspiro[3.5]nonan-7-yl)methyl)tetrahydro-2H-pyran-3-yl)azetidine-1-sulfonamide], in data set [1], the “hERG % Remaining 30 μM” value is recorded as “+++ (“+++” means ≥66%)”. In addition, the Ki in data set [2] was less than 1 nM.

`Cc1nc(S(=O)(=O)N[C@@H]2CC[C@@H](CN3CCC4(CC3)CN(c3ncncc3Oc3ccc(F)cc3C(=O)N3[C@H](C)COC[C@H]3C)C4)OC2)cs1` [Compound 122, N-((3R,6S)-6-((2-(5-(2-((3R,5R)-3,5-Dimethylmorpholine-4-carbonyl)-4-fluorophenoxy)pyrimidin-4-yl)-2,7-diazaspiro[3.5]nonan-7-yl)methyl)tetrahydro-2H-pyran-3-yl)-2-methylthiazole-4-sulfonamide]: in data set [1], the “hERG % Remaining 30 μM” value is given as “+++ (“+++” means ≥66%)” and the IC50 is not below 50000 nM. Moreover, in data set [2], the Ki is less than 1 nM.

As for `C[C@@H]1COC[C@@H](C)N1C(=O)c1cc(F)ccc1Oc1cncnc1N1CC2(CCN(C[C@@H]3CC[C@@H](NS(=O)(=O)N(C)C)CO3)CC2)C1` [Compound 123, {[(3R,6S)-6-{[2-(5-{2-[(3R,5R)-3,5-Dimethylmorpholine-4-carbonyl]-4-fluorophenoxy}pyrimidin-4-yl)-2,7-diazaspiro[3.5]nonan-7-yl]methyl}oxan-3-yl]sulfamoyl}dimethylamine], the “hERG % Remaining 30 μM” value in data set [1] is on record as “+++ (“+++” means ≥66%)”. Besides, the inhibitory constant (Ki) in data set [2] was less than 1 nM.
